Test results reported in patent US20180207249A1, “METHOD AND VACCINE COMPRISING COPOLYMER 1 FOR TREATMENT OF PSYCHIATRIC DISORDERS” (YEDA RESEARCH AND DEVELOPMENT CO. LTD., priority 2003, published 2018).

Experiments:
[1] = tested on: C57BL/6J mice injected with MK-801 or AMPH; assay: Morris water maze (MWM) spatial learning/memory task after psychotomimetic drug; format: in vivo, mouse; conditions: C57BL/6J mice immunized 1 week before MK-801
Method: (iii) Immunization. Each animal was injected with a total of 100 μg of Cop-1 emulsified in an equal volume of complete Freund's adjuvant (CPA) containing 5 mg/ml of Mycobacteria H37 RA (Difco). The emulsion, in a total volume of 0.1 mL, was injected into the flank 1 week before the mouse was first injected with a psychotomimetic drug. Control mice were injected with an equal volume of phosphate-buffered saline (PBS) emulsified in CFA.
(vi) Drug solutions. Fresh solutions of dizocilpine maleate (MK-801; Sigma-Aidrich) were prepared in physiological saline (0.9% NaCl in sterile distilled water) for each batch of mice. Physiological saline was also used as a vehicle for D-amphetamine sulfate (AMPH: Sigma). MK-801. (0.1 mg/kg) or AMPH (2.5 mg/kg) or sahne was injected i.p., in a total volume of 5 ml per kg of body weight. Mice were injected with MK-801, AMPH, or vehicle 15 min before being subjected to behavioral tests.
(vii) Morris water maze (MWM) behavioral test. Spatial learning/memory was assessed by performance on a hippocampal-dependent visuospatial learning task in the MWM. Mice were given four trials per day, for four consecutive days, to find a hidden platform located 1.5 cm below the water surface in a pool 1.4 m in diameter. Within the testing room only distal visuo-spatial cues were available to the mice for location of the submerged platform. The escape latency, i.e., the time required by the mouse to find and climb onto the platform, was recorded for up to 60 s. Each mouse was allowed to remain on the platform for 30 s, and was then moved from the maze to its home cage. […] The inter-trial interval was 30 s. On day 5, the platform was removed from the pool, and each mouse was tested by a probe trial for 60 s. On days 6-7 the platform was placed at the opposite, location, and the mouse was retrained in four sessions. Data were recorded by using an EthoVision automated tracking system (Noldus Information Technology, Wageningen, The Netherlands). […]

[2] = tested on: Treg (CD4+CD25+) co-cultured with effector T cells (Teff); assay: Inhibition assay (co-culturing of Teff with Treg), [3H]-thymidine incorporation; format: cell-based, mice; conditions: activated Treg incubated 2 h with Cop-1 20 μg/ml, Cop-1 20 μg/ml also added to co-culture
Method: (xviii) Purification of CB4^+CB25^+ and CD4^+CB25^− T cells. Lymph nodes were harvested and mashed. T cells were enriched by negative selection and purified on CD3-cell columns (MTCC-25; R&D Systems). The enriched T cells were incubated with and-CD8 raicrobeads (Miltenyi Biotec, Bergiseh Gladbach, Germany), and negatively selected CD4^+ T cells were incubated with PE-conjugated anti-CD25 (30 μg/10^8 cells) in PBS/2% fetal calf serum. They were then washed and incubated with anti-PE microbeads (Miltenyi Biotec) and subjected to magnetic separation with AutoMACS (Miltenyi Biotec). The retained cells were eluted from the column as purified CD4^+CD25^+ cells. The negative fraction consisted of CD4^+CD25^− T cells. Cell purity was chceked by FACSort (Becton-Dickinson) and typically ranged from 88% to 95%. Purified cells were cultured in 24-well plates (1 ml).
(xix) Activation of CB4^+CD25^+ regulatory T cells. […]
(xx) Inhibition assay (co-culturing of Teff with Treg). […] After the cells were harvested, their analyzed [^3H]-thymidine content was analyzed by the use of a […].
Naïve Teff cells (50×10^3 cells/well) were co-cultured with decreasing numbers ([…] cells/well) of Treg cells that have been activated for 24 h with anti-CD3 and mrIL 2. […] Recorded values are from one representative experiment out of three and are expressed as means±SD of 4 replicates.

[3] = tested on: mice injected with a psychotomimetic drug; assay: Social behavior test; format: in vivo, mouse; conditions: vaccinated mice vs controls; data not shown

## Copolymer 1 [Cop-1]
[1]
  MWM extinction phase, time spent in training quadrant after MK-801: behaved similarly to WT mice
[2]
  Treg-mediated suppression of Teff proliferation: alleviated the suppression of Teff compared to the control
[3]
  Communicative behavior in social behavior test: better communicative behavior than the controls
